For this assay, the system named is Lewis lung carcinoma i.m., BDF1 mice, T/C %. Nature of the assay: NCI In Vivo Anticancer Drug Screen. Data for tumor model Lewis Lung Carcinoma (intramuscular) in B6D2F1 (BDF1) mice. In outline: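 Tumour-bearing mice were dosed with compound, and either their survival or their tumour size was measured. Results were expressed relative to vehicle-treated controls as T/C.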

Several values for one entry are separate records, joined by “and”; a condition that tells them apart may be missing. Equal values may be shown once. Inconclusive results are not listed.

In the case of `N=[N+]=CC(=O)CCC(NC(=O)C(CCC(=O)C=[N+]=N)NC(=O)CCC(N)C(=O)O)C(=O)O` (configuration not stated), the T/C runs as follows: (endpoint: mean tumor weight, dose: 7.5 micrograms/kg/injection, schedule: Q01DX011 (ip), vehicle: water, higher = larger tumour) 63 % of control; (endpoint: mean tumor weight, dose: 15.0 micrograms/kg/injection, schedule: Q01DX011 (ip), vehicle: water, higher = larger tumour) 66 % of control; (endpoint: mean tumor weight, dose: 30.0 micrograms/kg/injection, schedule: Q01DX011 (ip), vehicle: water, higher = larger tumour) 60 % of control; (endpoint: mean tumor weight, dose: 60.0 micrograms/kg/injection, schedule: Q01DX011 (ip), vehicle: water, higher = larger tumour) 63 % of control; (endpoint: median survival time, dose: 0.1 mg/kg/injection, schedule: Q01DX011 (ip), vehicle: saline, higher = longer survival) 88 % of control and 101 % of control; (endpoint: median survival time, dose: 0.2 mg/kg/injection, schedule: Q01DX011 (ip), vehicle: saline, higher = longer survival) 106 % of control. Also, the T/C was 101 % of control and 103 % of control (endpoint: median survival time, dose: 0.4 mg/kg/injection, schedule: Q01DX011 (ip), vehicle: saline, higher = longer survival); 87 % of control (endpoint: median survival time, dose: 0.8 mg/kg/injection, schedule: Q01DX011 (ip), vehicle: saline, higher = longer survival); 87 % of control (endpoint: median survival time, dose: 1.6 mg/kg/injection, schedule: Q01DX011 (ip), vehicle: saline, higher = longer survival); 104 % of control (endpoint: median survival time, dose: 7.5 micrograms/kg/injection, schedule: Q01DX011 (ip), vehicle: water, higher = longer survival); 97 % of control (endpoint: median survival time, dose: 12.5 micrograms/kg/injection, schedule: Q01DX009 (ip), vehicle: Klucel (hydroxypropylcellulose) (HPC), higher = longer survival); 106 % of control (endpoint: median survival time, dose: 15.0 micrograms/kg/injection, schedule: Q01DX011 (ip), vehicle: water, higher = longer survival). For the same molecule, the T/C was 98 % of control (endpoint: median survival time, dose: 25.0 micrograms/kg/injection, schedule: Q01DX009 (ip), vehicle: Klucel (hydroxypropylcellulose) (HPC), higher = longer survival); 97 % of control (endpoint: median survival time, dose: 30.0 micrograms/kg/injection, schedule: Q01DX011 (ip), vehicle: water, higher = longer survival); 90 % of control (endpoint: median survival time, dose: 50.0 micrograms/kg/injection, schedule: Q01DX009 (ip), vehicle: Klucel (hydroxypropylcellulose) (HPC), higher = longer survival); 102 % of control (endpoint: median survival time, dose: 60.0 micrograms/kg/injection, schedule: Q01DX011 (ip), vehicle: water, higher = longer survival); 98 % of control (endpoint: median survival time, dose: 100.0 micrograms/kg/injection, schedule: Q01DX009 (ip), vehicle: Klucel (hydroxypropylcellulose) (HPC), higher = longer survival).

The values above are taken from PubChem BioAssay AID272 (DTP/NCI, 2004).
